Results as given in US10005803B2, “Crystalline forms of fosnetupitant” (Helsinn Healthcare SA, priority 2015, dated 2018).
“Also recorded” adds a separate entry of the source.

How the values were obtained:
[1] = Procedure: The solubility of the starting compound was determined in 25 pharmaceutically acceptable solvents (class II and III) of differing polarity. The procedure was as follows:
Approximately 20 mg of material was weighed out into each glass vial.
The mixture was stirred at RT for 5-10 minutes. Visual checks were then made for solubility.
If no solubility was achieved then steps (ii) and (iii) were repeated until either the solubility was achieved or the 50 volume aliquots of that solvent were added.
Solubility was then approximated.
Solubility was finally checked at the elevated temperature (40° C.).

[2] = Gravimetric Vapor Sorption (GVS); format: physicochemical; conditions: for Overall moisture uptake: 0% to 90% RH (Form I: % w/w, whole studied RH range up to 90% RH); for Moisture uptake / gradual Wt increase: from 0% to 50% RH; for Hygroscopicity class by GVS: weight increase at 80% RH; for Largest Wt increase: from 70 to 90% RH
Procedure: 1.7.6 Gravimetric Vapor Sorption (GVS)
Approximately 20 mg of sample was placed into a wire-mesh vapor sorption balance pan and loaded into an ‘IgaSorp’ vapor sorption balance (Hiden Analytical Instruments). The sample was then dried by maintaining a 0% humidity environment until no further weight change was recorded. Subsequently, the sample was subjected to a ramping profile from 0-90% RH at 10% RH increments, maintaining the sample at each step until equilibration had been attained (99.5% step completion). Upon reaching equilibration, the % RH within the apparatus was ramped to the next step and the equilibration procedure repeated. After completion of the sorption cycle, the sample was dried using the profile from 85-5% RH at 10% RH increments same procedure. At last, the sample was dried by maintaining a 0% humidity environment until no further weight change was recorded. The weight change during the sorption/desorption cycles were then monitored, allowing the hygroscopic nature of the sample to be determined.

[3] = Stability studies at 40° C./75% RH (open vial); format: physicochemical; conditions: 1 week (7 days), checked by XRPD, Raman
Procedure: The polymorphs identified were stored at 40° C./75% RH (open vial). Each sample was put in a glass vial un-capped. Analysis was carried out at 7 days by XRPD and Raman for any potential change in crystalline structure.

| Solubility (in words) [1] | Overall moisture uptake [2] | Moisture uptake / gradual Wt increase [2] | Form change detected by GVS ([2]; sorption/desorption cycle 0-90% RH) | Hygroscopicity class by GVS [2] | Sharp Wt increase in absorption ([2]; @10% RH) | Loss of weight in the absorption process ([2]; at 60% RH) | Moisture uptake ([2]; from 0 to 70% RH) | Gradual Wt increases, total ([2]; from 20 to 70% RH) | Largest Wt increase [2] | Loss of weight in absorption process ([2]; at 80% RH) | Structure (SMILES) | Generated form (change in crystalline structure) [3] |
| --- | --- | --- | --- | --- | --- | --- | --- | --- | --- | --- | --- | --- |
| very poor solubility | about 45% | about 5% | No form changes were detected | very hygroscopic (>15%@80% RH) | – | – | – | – | – | – | Cc1ccccc1-c1cc(N2CC[N+](C)(COP(=O)(O)O)CC2)ncc1N(C)C(=O)C(C)(C)c1cc(C(F)(F)F)cc(C(F)(F)F)c1.Cl.[Cl-] [Form I, 4-(5-(2-(3,5-bis(trifluoromethyl)phenyl)-N,2-dimethylpropanamido)-4-(o-tolyl)pyridin-2-yl)-1-methyl-1-((phosphonooxy)methyl)piperazin-1-ium] | changes in crystalline structures; also recorded: changed |
| – | circa 12.75% | – | – | hygroscopic (15%>Wt increase>2%%@80% RH) | circa 2.92 % w/w | ~0.2 % w/w | circa 4.12% | circa 1.2 % w/w | circa 8.63 % w/w | – | Cc1ccccc1-c1cc(N2CC[N+](C)(COP(=O)(O)O)CC2)ncc1N(C)C(=O)C(C)(C)c1cc(C(F)(F)F)cc(C(F)(F)F)c1.Cl.[Cl-] [Form II, 4-(5-(2-(3,5-bis(trifluoromethyl)phenyl)-N,2-dimethylpropanamido)-4-(o-tolyl)pyridin-2-yl)-1-methyl-1-((phosphonooxy)methyl)piperazin-1-ium] | not and No change |
| – | circa 25% | circa 5.19% | – | very hygroscopic (>15%@80% RH) | – | – | – | – | circa 8.63 % w/w | ~5.82 % w/w | Cc1ccccc1-c1cc(N2CC[N+](C)(COP(=O)(O)O)CC2)ncc1N(C)C(=O)C(C)(C)c1cc(C(F)(F)F)cc(C(F)(F)F)c1.Cl.[Cl-] [Form III, 4-(5-(2-(3,5-bis(trifluoromethyl)phenyl)-N,2-dimethylpropanamido)-4-(o-tolyl)pyridin-2-yl)-1-methyl-1-((phosphonooxy)methyl)piperazin-1-ium] | changes in crystalline structures; also recorded: changed |
